# Values quoted from earlier work in publication PMC9387934, “Randomized single oral dose phase 1 study of safety, tolerability, and pharmacokinetics of Iminosugar UV-4 Hydrochloride (UV-4B) in healthy subjects” (PLoS Neglected Tropical Diseases, 2022).
# Key:
# [1] = 300 mg BID; grade 3 transaminase, CK, and LDH elevations; cited from earlier work
# [2] = 1108 patients, average of 6 months; cited from earlier work
# [3] = 212 obese patients treated for 36 months; cited from earlier work
# [4] = healthy male subjects; cited from earlier work
# [5] = dogs, 105 mg/kg/day given over 4 weeks; cited from earlier work
# [6] = set-up: method as in Zavesca SmPC; settings: ref Zavesca SmPC; cited from earlier work
# [7] = set-up: method as in FDA Advisory Briefing Book for Miglustat; settings: humans, doses of up to 1000 mg TID; ref FDA Advisory Briefing Book for Miglustat; cited from earlier work
# [8] = doses of 100 mg TID or less; cited from earlier work
smiles,measurement,setting,value
CCCC(=O)O[C@H]1CN2CC[C@H](O)[C@@H]2[C@@H](O)[C@@H]1O [Celgosivir],Outcome of safety and tolerability study,[1],prematurely discontinued
C[C@H]1O[C@H](O[C@H]2[C@H](O)[C@@H](O)[C@@H](O[C@H]3[C@H](O)[C@@H](O)C(O)O[C@@H]3CO)O[C@@H]2CO)[C@H](O)[C@@H](O)[C@@H]1N[C@H]1C=C(CO)[C@@H](O)[C@H](O)[C@H]1O (some centres unmarked) [acarbose],Rates of ALT elevations versus placebo,[2],no different
same,"ALT elevations, share of patients",[3],9%
"CCCCN1C[C@H](O)[C@@H](O)[C@H](O)[C@H]1CO [miglustat, N-butyl-Deoxynojirimycin]",AST elevations,[4],no AST elevations
same,Neurologic findings,[5],tremor and reduction or absence of corneal reflexes
same,NOAEL,[6],20 mg/kg
same,Histamine-like findings as seen in rats,[7],no similar findings
same,Association with AST and ALT elevations,[8],does not appear to be associated
